Assay results as given in PMC7901646, “Pyrrolo[2′,3′:3,4]cyclohepta[1,2-d][1,2]oxazoles, a New Class of Antimitotic Agents Active against Multiple Malignant Cell Types” (Journal of Medicinal Chemistry, 2020).

How the values were obtained:
[1] = test system: human peripheral blood lymphocytes not stimulated with PHA; test: Cytotoxicity in resting PBLs (MTT); assay type: cell-based; conditions: Lymphocyte, 72 h, mean ± SEM, three experiments, read-out: GI50 PBLresting
Method: (§1) PBLs were obtained from human peripheral blood (leucocyte rich plasma-buffy coats) from healthy volunteers using the Lymphoprep (Fresenius KABI Norge AS) gradient density centrifugation.
(§2) After extensive washing, cells were resuspended (1.0 × 10^6 cells/mL) in RPMI-1640 with 10% fetal bovine serum and incubated overnight. For cytotoxicity evaluations in proliferating PBL cultures, nonadherent cells were resuspended at 5 × 10^5 cells/mL in growth medium, containing 2.5 μg/mL PHA (Irvine Scientific). Different concentrations of the test compounds were added, and viability was determined 72 h later by the MTT test. For cytotoxicity evaluations in resting PBL cultures, nonadherent cells were resuspended (5 × 10^5 cells/mL) and treated for 72 h with the test compounds.

[2] = test system: human peripheral blood lymphocytes stimulated with PHA; test: Cytotoxicity in PHA-stimulated PBLs (MTT); assay type: cell-based; conditions: Lymphocyte, 72 h, mean ± SEM, three experiments, read-out: GI50 PBLPHA
Method: as §1, §2

tumor growth = test system: tumor growth; set-up: method as in PMID 17915194, PMID 21215627; conditions: in vivo models, dose of 50–100 mg/kg; cited from earlier work
bovine brain tubulin = bovine brain tubulin (Bos taurus, UniProt P81947+Q6B856); test: Inhibition of tubulin assembly (turbidimetry); assay type: biochemical; conditions: 9 μM (0.9 mg/mL) tubulin, 20 min at 30 °C; read-out: inhibition of tubulin assembly IC50 ± SD
six lymphoma cell lines = test: MTT cell proliferation, all lymphoma cell lines; assay type: cell-based, human; conditions: 1 μM, 72 h, of the untreated cells
Method: (§3) All compounds were further tested at the concentration of 1 μM on four cell lines derived from distinct lymphoma histotypes, plus two with secondary resistance to the PI3Kδ inhibitor idelalisib[51] or to the BTK inhibitor ibrutinib.[52] […] For comparison, the same experiments were conducted using compound 3, but the response to it was minimal, and thus it was not considered further.
Established human cell lines derived from germinal center B-cell (GCB) (SU-DHL-10), activated B-cell (ABC) (HBL1) diffuse large B-cell lymphoma (DLBCL), mantle cell lymphoma (MCL) (MINO), splenic marginal zone lymphoma (SMZL) (parental VL51, VL51 idelalisib resistant clone, VL51 ibrutinib resistant clone) were cultured in culture RPMI-1640 media supplemented with fetal bovine serum (10%), penicillin–streptomycin–neomycin (∼5,000 units of penicillin, 5 mg of streptomycinm and 10 mg of neomycin/mL, Sigma), and L-glutamine (1%). Vincristine sulfate was purchased from Sigma-Aldrich. […]
The antiproliferative activity of all compounds was assessed by using the 3-(4.5-dimethylthiazolyl-2)-2,5-diphenyltetrazolium bromide (MTT) test. […] Wells containing medium only were included on each plate and served as blanks for absorbance readings. […] Cells were then lysed with 25% sodium dodecyl sulfate lysis buffer, and absorbance was read at 570 nm using a Beckman Coulter-AD340 plate reader.

HBL1 (ABC DLBCL) = test: MTT cell proliferation, lymphoma; assay type: cell-based; conditions: Homo sapiens, 1 μM, 72 h, of untreated cells, read-out: Proliferating cells (%)
Method: as §3
(§4) Established human cell lines derived from germinal center B-cell (GCB) (SU-DHL-10), activated B-cell (ABC) (HBL1) diffuse large B-cell lymphoma (DLBCL), mantle cell lymphoma (MCL) (MINO), splenic marginal zone lymphoma (SMZL) (parental VL51, VL51 idelalisib resistant clone, VL51 ibrutinib resistant clone) were cultured in culture RPMI-1640 media supplemented with fetal bovine serum (10%), penicillin–streptomycin–neomycin (∼5,000 units of penicillin, 5 mg of streptomycinm and 10 mg of neomycin/mL, Sigma), and L-glutamine (1%). Vincristine sulfate was purchased from Sigma-Aldrich. Cell line identities were confirmed by CellCheck test (IDEXX, BioResearch, Ludwigsburg, Germany). All compounds were dissolved in dimethyl sulfoxide to obtain a stock concentration of 10 mM.
(§5) The antiproliferative activity of all compounds was assessed by using the 3-(4.5-dimethylthiazolyl-2)-2,5-diphenyltetrazolium bromide (MTT) test. Cells were seeded in 96-well plates (nontissue culture treated) at a density of 1 × 10^5 cells/mL and treated with a single concentration of 1 μM for 72 h. […] In this case, cells were treated in triplicate with serially diluted compounds in the appropriate tissue culture medium at a range of 40–10 000 nM. Cells were incubated for 72 h at 37 °C, 5% CO2. Wells containing medium only were included on each plate and served as blanks for absorbance readings. MTT (Sigma, Buchs, Switzerland) was prepared as a 5 mg/mL stock solution in phosphate buffered saline (PBS) and filter-sterilized. MTT solution (22 μL) was added to each well, and tissue culture plates were incubated at 37 °C for 4 h. Cells were then lysed with 25% sodium dodecyl sulfate lysis buffer, and absorbance was read at 570 nm using a Beckman Coulter-AD340 plate reader.

VL51 ibrutinib-resistant = test: MTT cell proliferation, lymphoma; assay type: cell-based; conditions: Homo sapiens, 72 h, of untreated cells, read-out: Proliferating cells (%)
Method: as §3, §4, §5

SU-DHL-10 (GCB DLBCL) = test: MTT cell proliferation, lymphoma; assay type: cell-based; conditions: Homo sapiens, SU-DHL10; 1 μM, 72 h, of untreated cells; read-out: Proliferating cells (%)
Method: as §3, §4, §5

MINO (MCL) = test: MTT cell proliferation, lymphoma; assay type: cell-based; conditions: Homo sapiens, 1 μM, 72 h, of untreated cells, read-out: Proliferating cells (%)
Method: as §3, §4, §5

[3] = test system: VL51 idelalisib-resistant; test: MTT cell proliferation, lymphoma; assay type: cell-based; conditions: Homo sapiens, 72 h, of untreated cells, read-out: Proliferating cells (%)
Method: as §3, §4, §5

VL51 (MZL) = test: MTT cell proliferation, lymphoma; assay type: cell-based; conditions: Homo sapiens, 1 μM, 72 h, of untreated cells, read-out: Proliferating cells (%)
Method: as §3, §4, §5

[4] = test system: NCI-60 panel of human cancer cell lines; set-up: method as in earlier work; conditions: full NCI panel, ref 42−45, cited from earlier work
tubulin colchicine site = tubulin colchicine site (Bos taurus, UniProt P81947+Q6B856); test: Inhibition of [3H]colchicine binding to tubulin; conditions: read-out: inhibition of colchicine binding % inhibition ± SD
Sequence of tubulin colchicine site (Q6B856 whole entry): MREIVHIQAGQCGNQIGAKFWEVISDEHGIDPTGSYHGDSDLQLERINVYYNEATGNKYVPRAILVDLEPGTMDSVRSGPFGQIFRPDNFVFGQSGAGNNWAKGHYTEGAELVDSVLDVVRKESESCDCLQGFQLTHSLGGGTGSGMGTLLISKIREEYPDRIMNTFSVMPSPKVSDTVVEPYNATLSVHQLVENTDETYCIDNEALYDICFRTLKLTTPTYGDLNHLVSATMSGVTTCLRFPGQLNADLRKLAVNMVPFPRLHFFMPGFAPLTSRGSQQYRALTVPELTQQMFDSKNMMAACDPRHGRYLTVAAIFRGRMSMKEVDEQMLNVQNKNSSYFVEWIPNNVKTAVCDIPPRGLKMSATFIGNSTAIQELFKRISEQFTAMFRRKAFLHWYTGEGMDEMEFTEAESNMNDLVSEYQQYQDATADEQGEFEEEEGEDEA
Sequence of tubulin colchicine site (P81947 whole entry): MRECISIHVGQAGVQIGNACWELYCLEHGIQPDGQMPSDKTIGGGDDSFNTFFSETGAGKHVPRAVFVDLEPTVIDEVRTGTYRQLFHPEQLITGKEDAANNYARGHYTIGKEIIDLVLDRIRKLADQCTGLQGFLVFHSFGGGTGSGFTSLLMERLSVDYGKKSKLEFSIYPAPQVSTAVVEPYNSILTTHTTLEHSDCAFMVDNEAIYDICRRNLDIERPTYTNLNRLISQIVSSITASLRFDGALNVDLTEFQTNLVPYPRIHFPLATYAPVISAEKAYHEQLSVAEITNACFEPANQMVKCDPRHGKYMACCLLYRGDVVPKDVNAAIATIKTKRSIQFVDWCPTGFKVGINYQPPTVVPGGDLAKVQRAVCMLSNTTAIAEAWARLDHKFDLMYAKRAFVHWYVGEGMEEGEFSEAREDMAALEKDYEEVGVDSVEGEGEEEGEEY

Sequence of bovine brain tubulin (Q6B856 whole entry): as the sequence (Q6B856 whole entry) above
Sequence of bovine brain tubulin (P81947 whole entry): as the sequence (P81947 whole entry) above

SMILES | GI50 [1] [µM] | GI50 [2] [µM] | reduction of tumor growth (tumor growth) | IC50 (bovine brain tubulin) [µM] | percentage of proliferating cells, all tested cell lines (six lymphoma cell lines) | activity at 1 µM (HBL1 (ABC DLBCL)) [%] | activity at 1 µM (VL51 ibrutinib-resistant) [%] | activity at 1 µM (SU-DHL-10 (GCB DLBCL)) [%] | activity at 1 µM (MINO (MCL)) [%] | activity at 1 µM [3] [%] | activity at 1 µM (VL51 (MZL)) [%] | MG_MID (mean graph midpoint) [4] [µM] | GI50 ([4]; read-out: GI50 range) [µM] | inhibition at 5 µM (tubulin colchicine site) [%]
CC[C@]1(O)C[C@H]2CN(CCc3c([nH]c4ccccc34)[C@@](C(=O)OC)(c3cc4c(cc3OC)N(C=O)[C@H]3[C@@](O)(C(=O)OC)[C@H](OC(C)=O)[C@]5(CC)C=CCN6CC[C@]43[C@@H]65)C2)C1 [vincristine, reference compound] | 7.5 ± 3.1 | 1.2 ± 0.6 |  |  |  |  |  |  |  |  |  |  |  | 
CCc1cc(-c2oncc2-c2ccc(OC)cc2)c(O)cc1OC [KRIBB3] |  |  | 50–70% |  |  |  |  |  |  |  |  |  |  | 
CCOC(=O)c1cc2c(n1Cc1cc(OC)cc(OC)c1)-c1oncc1CC2 [Compound 3, ethyl 8-(3,5-dimethoxybenzyl)-5,8-dihydro-4H-[1,2]oxazolo[4,5-g]indole-7-carboxylate, reference compound] |  |  |  | 9.2 ± 0.4 | minimal | 95.6 | 123 | 80 | 94.5 | 107 | 93.5 | 0.25 | 0.03 to 31.1 | 
COc1cc(Cn2ccc3c2-c2oncc2CCC3)cc(OC)c1 [Compound 58, 9-(3,5-Dimethoxybenzyl)-4,5,6,9-tetrahydropyrrolo[2′,3′:3,4]cyclohepta[1,2-d][1,2]oxazole] |  |  |  | 5.7 ± 1 |  | 114 | 73 | 72.4 | 101 | 78.4 | 84 |  |  | 25 ± 3
